Data from ChEMBL document CHEMBL1938312, “Design and combinatorial synthesis of a novel kinase-focused library using click chemistry-based fragment assembly” (Bioorg Med Chem Lett, 2012).
Activity calls are given as the source filed them. The rule behind the calls is not given here.

Columns and labels:
[1] = molecular target: Mitogen-activated protein kinase 14 (Homo sapiens) (UniProt Q16539); experiment: Inhibition of p38alpha at 10 uM by colorimetric analysis
[2] = molecular target: T1, Serine/threonine-protein kinase Sgk1 (Homo sapiens) (UniProt O00141); experiment: Inhibition of SGK at 10 uM by colorimetric analysis
T1 sequence (whole entry): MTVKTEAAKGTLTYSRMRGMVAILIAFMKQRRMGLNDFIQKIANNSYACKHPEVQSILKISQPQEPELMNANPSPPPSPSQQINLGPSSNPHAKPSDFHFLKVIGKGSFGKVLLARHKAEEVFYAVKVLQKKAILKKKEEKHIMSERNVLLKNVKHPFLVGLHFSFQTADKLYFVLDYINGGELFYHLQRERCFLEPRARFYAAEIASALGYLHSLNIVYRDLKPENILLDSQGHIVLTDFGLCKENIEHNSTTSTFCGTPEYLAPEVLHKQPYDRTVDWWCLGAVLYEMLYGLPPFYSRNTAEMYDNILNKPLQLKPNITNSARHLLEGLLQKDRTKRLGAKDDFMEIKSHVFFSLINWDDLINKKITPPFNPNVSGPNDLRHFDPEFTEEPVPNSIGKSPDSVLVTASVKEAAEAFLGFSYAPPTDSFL

[3] = molecular target: Glycogen synthase kinase-3 beta (Homo sapiens, UniProt P49841); experiment: Inhibition of GSK3-beta at 10 uM by colorimetric analysis
Glycogen synthase kinase-3 beta, sequence (P49841 whole entry, looked up): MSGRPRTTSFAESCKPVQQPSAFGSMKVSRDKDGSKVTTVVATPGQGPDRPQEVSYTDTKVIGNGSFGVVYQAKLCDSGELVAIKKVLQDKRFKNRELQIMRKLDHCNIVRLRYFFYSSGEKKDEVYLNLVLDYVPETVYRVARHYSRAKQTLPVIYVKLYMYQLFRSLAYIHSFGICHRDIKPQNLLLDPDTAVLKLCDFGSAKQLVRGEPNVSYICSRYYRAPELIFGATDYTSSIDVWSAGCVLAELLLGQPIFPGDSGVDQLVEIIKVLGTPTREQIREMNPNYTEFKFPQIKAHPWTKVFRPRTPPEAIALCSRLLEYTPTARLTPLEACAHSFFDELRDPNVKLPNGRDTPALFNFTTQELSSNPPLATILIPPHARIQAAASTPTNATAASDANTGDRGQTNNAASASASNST

[4] = molecular target: T2, Serine/threonine-protein kinase Nek2 (Homo sapiens) (UniProt P51955); experiment: Inhibition of NEK2 at 10 uM by colorimetric analysis
T2 sequence (whole entry): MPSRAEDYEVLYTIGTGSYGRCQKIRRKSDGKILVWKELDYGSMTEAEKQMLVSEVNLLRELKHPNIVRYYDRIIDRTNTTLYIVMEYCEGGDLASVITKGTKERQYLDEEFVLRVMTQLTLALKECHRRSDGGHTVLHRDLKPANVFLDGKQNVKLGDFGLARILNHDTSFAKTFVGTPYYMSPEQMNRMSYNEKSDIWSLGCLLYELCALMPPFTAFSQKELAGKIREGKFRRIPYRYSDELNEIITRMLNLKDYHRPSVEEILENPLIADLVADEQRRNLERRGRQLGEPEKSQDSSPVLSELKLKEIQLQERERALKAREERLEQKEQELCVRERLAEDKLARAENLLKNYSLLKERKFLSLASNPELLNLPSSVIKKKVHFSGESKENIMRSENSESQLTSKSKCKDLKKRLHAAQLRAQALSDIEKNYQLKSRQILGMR

[5] = molecular target: T3, Interleukin-1 receptor-associated kinase 4 (Homo sapiens) (UniProt Q9NWZ3); experiment: Inhibition of IRAK4 at 10 uM by colorimetric analysis
T3 sequence (whole entry): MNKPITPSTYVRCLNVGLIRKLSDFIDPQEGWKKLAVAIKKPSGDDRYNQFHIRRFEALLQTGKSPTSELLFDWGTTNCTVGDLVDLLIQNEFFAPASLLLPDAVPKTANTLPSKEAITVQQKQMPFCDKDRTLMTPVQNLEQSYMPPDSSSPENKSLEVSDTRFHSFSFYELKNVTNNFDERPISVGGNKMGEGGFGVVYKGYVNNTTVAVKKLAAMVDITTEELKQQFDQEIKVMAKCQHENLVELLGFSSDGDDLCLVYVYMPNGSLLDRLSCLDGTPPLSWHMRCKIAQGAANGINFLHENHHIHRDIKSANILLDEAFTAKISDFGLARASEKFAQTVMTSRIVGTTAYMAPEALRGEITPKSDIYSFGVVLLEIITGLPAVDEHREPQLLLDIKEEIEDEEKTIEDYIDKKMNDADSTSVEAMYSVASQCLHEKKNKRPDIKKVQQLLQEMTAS

[6] = molecular target: Tyrosine-protein kinase SYK (Homo sapiens) (UniProt P43405); experiment: Inhibition of SYK at 10 uM by colorimetric analysis
[7] = molecular target: T4, Serine/threonine-protein kinase 4 (Homo sapiens) (UniProt Q13043); experiment: Inhibition of MST1 at 10 uM by colorimetric analysis
T4 sequence (whole entry): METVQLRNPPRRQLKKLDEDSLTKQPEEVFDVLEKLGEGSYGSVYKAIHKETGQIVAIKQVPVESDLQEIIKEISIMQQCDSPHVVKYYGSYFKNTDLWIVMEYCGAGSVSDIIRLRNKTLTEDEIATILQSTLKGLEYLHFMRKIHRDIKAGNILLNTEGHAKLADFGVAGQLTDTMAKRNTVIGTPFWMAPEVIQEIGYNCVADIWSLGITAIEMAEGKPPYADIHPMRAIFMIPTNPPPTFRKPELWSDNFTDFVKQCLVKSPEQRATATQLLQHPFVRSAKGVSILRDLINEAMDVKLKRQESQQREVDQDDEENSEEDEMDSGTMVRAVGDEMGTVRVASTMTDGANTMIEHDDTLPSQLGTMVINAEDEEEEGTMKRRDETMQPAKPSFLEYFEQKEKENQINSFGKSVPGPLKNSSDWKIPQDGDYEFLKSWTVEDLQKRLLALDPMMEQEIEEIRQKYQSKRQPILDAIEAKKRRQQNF

[8] = molecular target: Protein kinase C alpha type (Homo sapiens) (UniProt P17252); experiment: Inhibition of PKCalpha at 10 uM by colorimetric analysis
[9] = molecular target: Serine/threonine-protein kinase PAK 4 (Homo sapiens) (UniProt O96013); experiment: Inhibition of PAK4 at 10 uM by colorimetric analysis
Serine/threonine-protein kinase PAK 4 (Homo sapiens), sequence (O96013 whole entry, looked up): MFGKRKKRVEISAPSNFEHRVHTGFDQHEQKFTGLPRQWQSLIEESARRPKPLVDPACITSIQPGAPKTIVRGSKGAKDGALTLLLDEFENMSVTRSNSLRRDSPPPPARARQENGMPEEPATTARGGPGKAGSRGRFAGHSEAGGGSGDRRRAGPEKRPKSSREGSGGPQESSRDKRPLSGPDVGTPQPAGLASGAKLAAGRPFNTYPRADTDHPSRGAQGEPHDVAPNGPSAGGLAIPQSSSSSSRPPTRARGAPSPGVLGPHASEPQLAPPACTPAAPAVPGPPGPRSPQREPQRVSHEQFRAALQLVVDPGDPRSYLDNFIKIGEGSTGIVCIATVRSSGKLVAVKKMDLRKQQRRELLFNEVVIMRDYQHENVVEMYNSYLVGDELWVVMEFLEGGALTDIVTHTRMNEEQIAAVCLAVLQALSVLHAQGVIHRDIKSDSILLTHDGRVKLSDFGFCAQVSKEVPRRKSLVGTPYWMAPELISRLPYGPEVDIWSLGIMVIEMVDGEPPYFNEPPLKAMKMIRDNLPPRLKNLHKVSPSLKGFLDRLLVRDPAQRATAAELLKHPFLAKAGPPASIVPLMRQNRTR

[10] = molecular target: Cyclin-dependent kinase 2/cyclin A (Homo sapiens) (UniProt P24941+P20248+P78396); experiment: Inhibition of CDK2/CycA2 at 10 uM by colorimetric analysis; type: protein-complex assay
[11] = molecular target: 3-phosphoinositide-dependent protein kinase 1 (Homo sapiens) (UniProt O15530); experiment: Inhibition of PDK1 at 10 uM by colorimetric analysis
3-phosphoinositide-dependent protein kinase 1 (Homo sapiens), sequence (O15530 whole entry, looked up): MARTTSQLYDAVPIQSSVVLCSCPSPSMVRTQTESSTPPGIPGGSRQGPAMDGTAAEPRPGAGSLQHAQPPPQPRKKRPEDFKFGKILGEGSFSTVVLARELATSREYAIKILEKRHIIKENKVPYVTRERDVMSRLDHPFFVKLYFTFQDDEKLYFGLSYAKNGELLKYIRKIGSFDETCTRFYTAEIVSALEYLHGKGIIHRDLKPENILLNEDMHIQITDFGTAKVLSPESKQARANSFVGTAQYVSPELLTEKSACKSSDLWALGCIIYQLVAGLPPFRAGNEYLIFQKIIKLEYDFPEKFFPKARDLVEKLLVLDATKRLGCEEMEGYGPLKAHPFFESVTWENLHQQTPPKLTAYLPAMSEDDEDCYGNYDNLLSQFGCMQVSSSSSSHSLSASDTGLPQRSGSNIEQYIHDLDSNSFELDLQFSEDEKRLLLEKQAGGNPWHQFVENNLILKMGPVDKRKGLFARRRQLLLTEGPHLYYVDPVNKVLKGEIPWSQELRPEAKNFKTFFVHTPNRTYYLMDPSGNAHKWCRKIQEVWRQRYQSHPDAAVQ

[12] = molecular target: Rho-associated protein kinase 1 (Homo sapiens) (UniProt Q13464); experiment: Inhibition of ROCK1 at 10 uM by colorimetric analysis
Rho-associated protein kinase 1 (Homo sapiens), sequence (Q13464 2-1354 limits assumed): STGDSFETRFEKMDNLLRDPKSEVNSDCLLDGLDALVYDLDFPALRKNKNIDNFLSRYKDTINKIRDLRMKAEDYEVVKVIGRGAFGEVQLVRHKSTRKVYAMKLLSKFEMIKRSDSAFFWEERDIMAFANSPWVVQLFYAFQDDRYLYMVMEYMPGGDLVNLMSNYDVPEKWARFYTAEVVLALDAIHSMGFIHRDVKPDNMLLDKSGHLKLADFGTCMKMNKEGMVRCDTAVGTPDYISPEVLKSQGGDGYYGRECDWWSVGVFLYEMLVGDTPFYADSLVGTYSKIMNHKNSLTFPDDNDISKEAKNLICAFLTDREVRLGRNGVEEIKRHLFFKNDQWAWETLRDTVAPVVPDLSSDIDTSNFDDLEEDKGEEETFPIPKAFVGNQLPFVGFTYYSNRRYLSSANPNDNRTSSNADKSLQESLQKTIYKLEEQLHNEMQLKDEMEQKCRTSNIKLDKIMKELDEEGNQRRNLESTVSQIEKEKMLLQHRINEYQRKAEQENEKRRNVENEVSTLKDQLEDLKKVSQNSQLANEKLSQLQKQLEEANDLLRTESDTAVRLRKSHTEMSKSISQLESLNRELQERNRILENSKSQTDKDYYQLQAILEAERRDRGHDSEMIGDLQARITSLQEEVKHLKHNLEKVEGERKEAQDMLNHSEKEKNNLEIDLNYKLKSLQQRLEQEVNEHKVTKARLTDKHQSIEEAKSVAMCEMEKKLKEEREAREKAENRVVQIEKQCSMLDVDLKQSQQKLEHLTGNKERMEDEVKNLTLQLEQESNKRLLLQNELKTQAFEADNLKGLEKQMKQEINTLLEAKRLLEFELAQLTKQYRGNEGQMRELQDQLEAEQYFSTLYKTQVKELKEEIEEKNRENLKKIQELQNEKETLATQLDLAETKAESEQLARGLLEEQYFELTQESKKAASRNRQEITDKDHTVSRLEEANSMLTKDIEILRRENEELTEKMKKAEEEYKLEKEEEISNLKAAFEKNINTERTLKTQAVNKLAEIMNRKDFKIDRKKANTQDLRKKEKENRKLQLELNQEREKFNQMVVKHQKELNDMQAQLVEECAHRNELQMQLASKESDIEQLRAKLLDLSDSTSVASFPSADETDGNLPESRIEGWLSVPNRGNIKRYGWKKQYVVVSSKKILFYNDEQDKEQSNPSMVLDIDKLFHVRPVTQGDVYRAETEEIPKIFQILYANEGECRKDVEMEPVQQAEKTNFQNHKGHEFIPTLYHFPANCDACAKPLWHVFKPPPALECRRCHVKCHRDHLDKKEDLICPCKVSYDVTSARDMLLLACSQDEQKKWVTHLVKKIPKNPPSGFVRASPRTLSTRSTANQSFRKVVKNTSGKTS

Mitogen-activated protein kinase 14 (Homo sapiens), sequence (Q16539 whole entry): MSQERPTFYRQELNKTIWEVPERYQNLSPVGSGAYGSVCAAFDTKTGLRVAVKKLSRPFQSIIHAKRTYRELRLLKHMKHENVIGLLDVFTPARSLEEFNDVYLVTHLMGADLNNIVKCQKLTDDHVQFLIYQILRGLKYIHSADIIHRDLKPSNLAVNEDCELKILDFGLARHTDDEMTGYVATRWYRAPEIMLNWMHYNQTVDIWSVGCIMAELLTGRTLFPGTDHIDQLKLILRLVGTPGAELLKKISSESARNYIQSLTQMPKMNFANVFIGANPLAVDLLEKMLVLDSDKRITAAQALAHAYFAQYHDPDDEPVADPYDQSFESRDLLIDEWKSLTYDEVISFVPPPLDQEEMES

SMILES	inhibition [1]	inhibition [2]	inhibition [3]	inhibition [4]	inhibition [5]	inhibition [6]	inhibition [7]	inhibition [8]	inhibition [9]	inhibition [10]	inhibition [11]	inhibition [12]
Clc1ccc(-n2cc(-c3ccncc3)nn2)cc1	Active	Active	Active	Active	Active	inactive	Active	Active	Active	Active	Active	Active
Clc1cccc(-n2cc(-c3ccncc3)nn2)c1	Active	Active	Active	Active	Active	inactive	Active	Active	Active	Active	Active	Active
Clc1ccc(-n2nncc2-c2ccncc2)cc1	Active	Active	Active	Active	Active	inactive	Active	Active	Active	Active	Active	Active
Clc1cccc(-n2nncc2-c2ccncc2)c1	Active	Active	Active	Active	Active	inactive	Active	Active	Active	Active	Active	Active
